Source: patent US20120172368A1, “Bis-Benzimidazole Derivatives” (priority 2009, published 2012)

System: HCV type 1b replicon in Huh-7 luc/neo (Huh-Luc) cells
Assay: HCV replicon assay (Huh-Luc, luciferase readout)
Format: cell-based
Conditions: Hepatitis C virus, Huh-7, 72 h, three days incubation, luciferase activity, read-out: HCV-REP-HUH-LUC_EC50
Description: The compounds of formula (I) were examined for inhibitory activity in the HCV replicon. This cellular assay is based on a bicistronic expression construct, as described by Lohmann et al. (1999) Science vol. 285 pp. 110-113 with modifications described by Krieger et al. (2001) Journal of Virology 75: 4614-4624, in a multi-target screening strategy.
In essence, the method was as follows:
The assay utilized the stably transfected cell line Huh-7 luc/neo (hereafter referred to as Huh-Luc). This cell line harbors an RNA encoding a bicistronic expression construct comprising the wild type NS3-NS5B regions of HCV type 1b translated from an Internal Ribosome Entry Site (IRES) from encephalomyocarditis virus (EMCV), preceded by a reporter portion (FfL-luciferase), and a selectable marker portion (neoR, neomycine phosphotransferase). The construct is flanked by 5′ and 3′ NTRs (non-translated regions) from HCV type 1b. Continued culture of the replicon cells in the presence of G418 (neoR) is dependent on the replication of the HCV RNA. The stably transfected replicon cells that express HCV RNA, which replicates autonomously and to high levels, encoding inter alia luciferase, were used for screening the antiviral compounds.
The replicon cells were plated in 384 well plates in the presence of the test and control compounds which were added in various concentrations. Following an incubation of three days, HCV replication was measured by assaying luciferase activity (using standard luciferase assay substrates and reagents and a Perkin Elmer ViewLux™ ultraHTS microplate imager). Replicon cells in the control cultures have high luciferase expression in the absence of any inhibitor. The inhibitory activity of the compound on luciferase activity was monitored on the Huh-Luc cells, enabling a dose-response curve for each test compound. EC50 values were then calculated, which represent the amount of compound required to decrease the level of detected luciferase activity by 50%, or more specifically, to reduce the ability of the genetically linked HCV replicon RNA to replicate.

SMILES	EC50 [nM]
COC(=O)N[C@H](C(=O)N1CCC[C@H]1c1nc2cc(-c3ccc(-c4ccc5nc([C@@H]6CCCN6C(=O)[C@@H](NC(=O)OC)C(C)C)[nH]c5c4)nn3)ccc2[nH]1)C(C)C [Compound 1]	0.13
COC(=O)N[C@H](C(=O)N1CCC[C@H]1c1nc2cc(-c3ncc(-c4ccc5nc([C@@H]6CCCN6C(=O)[C@@H](NC(=O)OC)[C@@H](C)OC)[nH]c5c4)cn3)ccc2[nH]1)[C@@H](C)OC [Compound 3]	0.13
COC(=O)N[C@H](C(=O)N1CCC[C@H]1c1nc2cc(-c3ncc(-c4ccc5nc([C@@H]6CCCN6C(=O)[C@@H](NC(=O)OC)C(C)C)[nH]c5c4)cn3)ccc2[nH]1)C(C)C [Compound 4]	0.03
COC(=O)N[C@@H](C(=O)N1CCC[C@H]1c1nc2cc(-c3ncc(-c4ccc5nc([C@@H]6CCCN6C(=O)[C@H](NC(=O)OC)c6ccccc6)[nH]c5c4)cn3)ccc2[nH]1)c1ccccc1 [Compound 5]	< 0.015
COC(=O)N[C@@H](C(=O)N1CCC[C@H]1c1nc2cc(-c3ccc(-c4ccc5nc([C@@H]6CCCN6C(=O)[C@H](NC(=O)OC)c6ccccc6)[nH]c5c4)nn3)ccc2[nH]1)c1ccccc1 [Compound 6]	0.045
COC(=O)N[C@H](C(=O)N1CCC[C@H]1c1nc2cc(-c3ncc(-c4ccc5nc([C@@H]6CCCN6C(=O)[C@@H](NC(=O)OC)C6CC6)[nH]c5c4)cn3)ccc2[nH]1)C1CC1 [Compound 7]	0.059
COC(=O)N[C@H](C(=O)N1CCC[C@H]1c1nc2ccc(-c3ccc(-c4ccc5nc([C@@H]6CCCN6C(=O)[C@@H](NC(=O)OC)[C@@H](C)OC)[nH]c5c4)nc3)cc2[nH]1)[C@@H](C)OC [Compound 9]	0.31
